In US5389634A, “Imidazole derivatives having angiotensin II receptor antagonistic activity” (Roussel-Uclaf, priority 1990, dated 1995) one finds IC50 data, which are given here for nine molecules.

One test has as its target T1, angiotensin II receptor (Rattus norvegicus, UniProt P25095).
T1 construct: A fresh membrane preparation obtained from the liver of a rat was used; from tissue; host or cells: rat liver membranes
T1 sequence (P25095 1-359): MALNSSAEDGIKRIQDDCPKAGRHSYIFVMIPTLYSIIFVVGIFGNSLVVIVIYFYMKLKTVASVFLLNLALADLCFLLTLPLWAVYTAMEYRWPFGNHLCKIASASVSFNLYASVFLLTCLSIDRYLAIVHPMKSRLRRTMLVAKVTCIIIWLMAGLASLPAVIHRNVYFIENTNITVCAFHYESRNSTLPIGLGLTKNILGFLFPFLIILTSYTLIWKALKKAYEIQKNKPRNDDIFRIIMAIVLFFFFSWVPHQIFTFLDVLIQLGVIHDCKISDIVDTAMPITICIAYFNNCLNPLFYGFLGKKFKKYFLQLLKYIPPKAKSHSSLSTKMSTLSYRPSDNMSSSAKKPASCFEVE
Nature of the test: Test on the angiotensin II receptor (displacement of I^125 angiotensin II on rat liver membrane preparation). Type of test: binding. As to conditions: 25° C., 150 minutes, pH 7.4, read-out: IC50 (50% inhibiting concentration, displacement of specific radioactivity fixed on the receptor). Here is the method: A fresh membrane preparation obtained from the liver of a rat was used and the tissue was ground up in a polytron in a Tris 50 mM buffer pH 7.4. The grinding was followed by 3 centrifugations at 30,000 g for 15 minutes and the deposits were taken up in between in the Tris buffer pH 7.4. The last deposits were suspended in an incubation buffer (Tris 20 mM, NaCl 135 mM, KCl 10 mM, glucose 5 mM, MgCl2 10 mM PMSF 0.3 mM, bacitracin 0.1 mM, BSA 0.2%) The aliquoted fractions of 2 ml were divided into hemolysis tubes and I^125 angiotensin II (25,000 DPM per tube) and the product to be studied were added. The product was first tested at 3×10^-5 M three times. When the tested product displaced by more than 50% the radioactivity linked specifically to the receptor, it was tested again according to a range of 7 concentrations to determine the concentration which inhibited by 50% the radioactivity linked specificaly to the receptor. In this way, the 50% inhibiting concentration was determined.
The non-specific bond was determined by addition of the product of Example 94 of European Patent No. 0,253,310, at 10^-5 M (three times). The medium was incubated at 25° C. for 150 minutes, put in a water bath at 0° C. for 5 minutes, filtered under vacuum, rinsed with Tris buffer pH 7.4 and the radioactivity was counted in the presence of scintillating Triton. The results were expressed directly as the 50% inhibiting concentration (IC50), that is as the concentration of studied product, expressed in nM, necessary to displace 50% of the specific radioactivity fixed on the receptor studied.

Test [1] concerns angiotensin II on the isolated portal vein. Nature of the test: Antagonistic activity of angiotensin II on the isolated portal vein. Type of test: cell-based, male Wistar rats. As to conditions: isolated rat portal vein, angiotensin II 3.10^-8 M, compound 15 minutes before stimulation, 37° C.; read-out: IC50 (concentration which produced a 50% inhibition of the response to angiotensin). Here is the method:
The portal vein of male Wistar rats weighing about 350 g (IFFA Credo France) was removed after cervical dislocation and placed rapidly in a physiological solution (see below) at ambient temperature. A ring of about 1 mm was mounted in a bath having an isolated organ containing 20 ml of the following physiological solution (composition in mM: NaCl 118.3-KCl […]-MgSO4 1.2-KH2 PO4 1.2-NaHCO3 25-glucose 11.1-CaCl2 2.5). The medium was maintained at 37° C. and oxygenated with an O2 (95%), CO2 (5%) mixture. The initial pressure imposed was 1 g, the rings were left at rest for 60 to 90 minutes. To avoid spontaneous contractions, verapamil was added to the incubation bath (1.10^-6 M).
At the end of the rest period, angiotensin II (Ciba hypertensin) 3.10^-8 M was added to the incubation bath and left in contact with the preparation for 1 minute. This operation was repeated every 30 minutes with the tissue being washed 3 or 4 times between two stimulations by angiotensin. The compound to be studied was introduced into the bath 15 minutes before a new stimulation by angiotensin. From increasing concentrations of the molecule being applied, an IC50 (concentration which produced a 50% inhibition of the response to angiotensin) can be calculated, this being expressed in nanomoles.

For the molecule `CCCCc1nc2cc(C)c(C)cc2n1Cc1ccc(C(=O)O)cc1` [Example 15, 4-((2-butyl-5,6-dimethyl-1H-benzimidazol-1-yl)-methyl) benzoic acid], the IC50 at angiotensin II receptor came out at 3610 nM.

Consider `CCCCc1nc2cscc2n1Cc1ccc(-c2ccccc2C(=O)O)cc1` [Example 34, 4'-((2-butyl-1H-thieno-(3,4-d)-imidazol-1-yl)-methyl)-(1,1'-biphenyl)-2-carboxylic acid], for which, at angiotensin II receptor, the IC50 amounted to 789 nM.

Regarding `CCCCc1nc2ccncc2n1Cc1ccc(C(=O)O)cc1` [Example 20, 4-((2-butyl-3H-imidazo(4,5-c)pyridin-3-yl)-methyl) benzoic acid], at angiotensin II receptor, the IC50 was 2720 nM.

On to `CCCCc1nc2ccccc2n1Cc1ccc(C(=O)Nc2cccc3[nH]ccc23)cc1` [Example 6, 4-((2-butyl-1H-benzimidazol-1-yl)-methyl)-N-(1H-indol-4-yl) benzamide], for which the IC50 at angiotensin II receptor is 3460 nM.

As for `CCCCc1nc2ccc(C(=O)O)cc2n1Cc1ccc(C(=O)O)cc1` [Example 2, 2-Butyl-1-((4-carboxyphenyl)-methyl)-1H-benzimidazol-6-carboxylic acid], the IC50 was determined as 2350 nM at angiotensin II receptor and 3400 nM in test [1].

Turning to `CCCCc1nc2cc3ccccc3cc2n1Cc1ccc(C(=O)O)cc1` [Example 10, 4-((2-butyl-1H-naphth(2,3-d)imidazol-1-yl)-methyl) benzoic acid], the IC50 at angiotensin II receptor was determined as 2270 nM; in test [1] it was 3280 nM.

As for `CCCCc1nc2ccccc2n1Cc1ccc(C(=O)O)cc1` [Example 5, 4-((2-butyl-1H-benzimidazol-1-yl)-methyl) benzoic acid], the values for the IC50 (on angiotensin II receptor; in test [1]) were 1440 nM and 3600 nM, respectively.

As for `CCCCc1nc2ncccc2n1Cc1ccc(-c2ccccc2C(=O)O)cc1` [Example 27, 4'-((2-butyl-1H-imidazo-(4,5-b)-pyridin-1-yl)-methyl)-(1,1'-biphenyl)-2-carboxylic acid], at angiotensin II receptor, the IC50 was 89 nM.

`CCCCc1nc2cccnc2n1Cc1ccc(C(=O)O)cc1` [Example 25]: the IC50 in test [1] amounted to 830 nM.
